Reference: ChEMBL document CHEMBL1949614, “Advent of Imidazo[1,2-a]pyridine-3-carboxamides with Potent Multi- and Extended Drug Resistant Antituberculosis Activity” (ACS Med Chem Lett, 2011)
≈ marks a conversion by molar mass, not a printed value.

Tests used:
Experiment in all cases: microbe, parasite or virus in culture
[1] = system: Mycobacterium tuberculosis
[2] = system: Mycobacterium tuberculosis; remark: listed apart in the source
[3] = system: Mycobacterium tuberculosis; remark: listed apart in the source
[4] = system: Mycobacterium tuberculosis; settings: variant bovis BCG
[5] = system: Mycobacterium tuberculosis; remark: listed apart in the source

Structure (SMILES) | MIC90 [1] | MIC90 [2] | MIC90 [3] | MIC90 [4] | MIC90 [5]
Cc1ccn2c(C(=O)NCc3ccccc3)c(C)nc2c1 | 0.28 µM (≈ 0.0782 µg/mL) | 1.07 µM (≈ 0.299 µg/mL) | 1.02 µM (≈ 0.285 µg/mL) | 0.33 µM (≈ 0.0922 µg/mL) | 
COc1cccc(CNC(=O)c2c(C)nc3ncc(C)cn23)c1 | 1.49 µM (≈ 0.462 µg/mL) | 1.02 µM (≈ 0.317 µg/mL) | 5.84 µM (≈ 1.81 µg/mL) | 2.78 µM (≈ 0.863 µg/mL) | 5.84 µM (≈ 1.81 µg/mL)
NNC(=O)c1ccncc1 [ISONIAZID] |  |  |  |  | > 8 µM
CO[C@H]1/C=C/O[C@@]2(C)Oc3c(C)c(O)c4c(O)c(c(/C=N/N5CCN(C)CC5)c(O)c4c3C2=O)NC(=O)/C(C)=C\C=C\[C@H](C)[C@H](O)[C@@H](C)[C@@H](O)[C@@H](C)[C@H](OC(C)=O)[C@@H]1C [RIFAMPIN] | > 1 µM |  |  | < 0.78 µM | 
